{"source": "patent US20110152089A1", "about": "“HERBICIDAL COMPOSITIONS COMPRISING FLUFENACET” (Bayer CropScience AG, priority 2009, published 2011)", "key": {"STEME [1]": {"test_system": "STEME", "test": "PE soil application vs incorporation into the soil, greenhouse (Table 1)", "assay_type": "in vivo, Stellaria media", "conditions": "g of AS/ha: (A) 90, (B) 300, (C) 70, (A)+(B)+(C) 90 + 300 + 70, visual, about 3 weeks after application", "method": "(§1) In the standard design of the test, seeds of various broad-leaved weed and weed grass biotypes (origins) were sown in a 8-13 cm diameter pot filled with natural soil of a standard field soil (loamy silt; non-sterile) and covered with a covering soil layer of about 1 cm. The pots were then cultivated in a greenhouse (12-16 h of light, temperature day 20-22° C., night 15-18° C.) until the time of application. The pots were treated on a laboratory track sprayer with spray liquors comprising the compositions according to the invention, mixtures of the prior art or components used individually. Application of the active compounds or active compound combinations formulated as WG, WP, EC or otherwise was carried out at the appropriate growth stages of the plants. The application rate for the spray application was 100-600 l of water/ha. After the treatment, the plants were returned to the greenhouses.\n(§2) About 3 weeks after the application, the soil action or/and foliar action was assessed visually according to a scale of 0-100% in comparison to an untreated comparative group: 0%=no noticeable effect compared to the untreated comparative group; 100%=full effect compared to the untreated comparative group.\n(§3) (notes: the term “seeds” also includes vegetative propagation forms such as, for example, rhizome pieces; abbreviations used: h light=hours of illumination, g of AS/ha=gram of active substance per hectare, l/ha=liter per hectare, S=sensitive, R=resistant) • 1. Pre-emergence action against weeds: seeds of various broad-leaved weed and weed grass biotypes (origins) were sown in a 8-13 cm diameter pot filled with natural soil of a standard field soil (loamy silt; non-sterile) and covered with a covering soil layer of about 1 cm. The pots were then cultivated in a greenhouse (12-16 h of light, temperature day 20-22° C., night 15-18° C.) until the time of application. The pots were treated at the BBCH stage 00-10 of the seeds/plants on a laboratory track sprayer with spray liquors comprising the compositions according to the invention, mixtures or components used individually, as WG, WP, EC or other formulations. The application rate for the spray application was 100-600 l of water/ha. After the treatment, the plants were returned to the greenhouses and, when required, treated with fertilizer and watered. • 2. Post-emergence action against weeds: seeds of various broad-leaved weed and weed grass biotypes (origins) were sown in a 8-13 cm diameter pot filled with natural soil of a standard field soil (loamy silt; non-sterile) and covered with a covering soil layer of about 1 cm. The pots were then cultivated in a greenhouse (12-16 h of light, temperature day 20-22° C., night 15-18° C.) until the time of application. The pots were treated at various BBCH stages between 11-25 of the seeds/plants, i.e. generally between two to three weeks after the start of the cultivation, on a laboratory track sprayer with spray liquors comprising the compositions according to the invention, mixtures or components used individually, as WG, WP, EC or other formulations. The application rate for the spray application was 100-600 l of water/ha. After the treatment, the plants were returned to the greenhouses and, when required, treated with fertilizer and watered. • 3. Pre-emergence action against weeds with and without incorporation of active compound: seeds of various broad-leaved weed and weed grass biotypes (origins) were sown in a 8-13 cm diameter pot filled with natural soil of a standard field soil (loamy silt; non-sterile). […]"}, "HORVS [2]": {"test_system": "HORVS", "test": "PE soil application vs incorporation into the soil, crop selectivity, greenhouse (Table 1)", "assay_type": "in vivo, Hordeum vulgare, summer barley", "conditions": "g of AS/ha: (A) 90, (B) 300, (C) 70, (A)+(B)+(C) 90 + 300 + 70, visual, about 3 weeks after application", "method": "as §1, §2, §3"}, "POAAN": {"test_system": "POAAN", "test": "PO application, greenhouse (Table 2)", "assay_type": "in vivo, Poa annua", "conditions": "g of AS/ha: (A) 120, (B) 1200, (C) 140, (A)+(B)+(C) 120 + 1200 + 140, visual, about 3 weeks after application", "method": "as §1, §2\n(§4) (notes: the term “seeds” also includes vegetative propagation forms such as, for example, rhizome pieces; abbreviations used: h light=hours of illumination, g of AS/ha=gram of active substance per hectare, l/ha=liter per hectare, S=sensitive, R=resistant) • 1. Pre-emergence action against weeds: seeds of various broad-leaved weed and weed grass biotypes (origins) were sown in a 8-13 cm diameter pot filled with natural soil of a standard field soil (loamy silt; non-sterile) and covered with a covering soil layer of about 1 cm. The pots were then cultivated in a greenhouse (12-16 h of light, temperature day 20-22° C., night 15-18° C.) until the time of application. […]"}, "HORVS [3]": {"test_system": "HORVS", "test": "PO application, crop selectivity, greenhouse (Table 2)", "assay_type": "in vivo, Hordeum vulgare, summer barley", "conditions": "g of AS/ha: (A) 120, (B) 1200, (C) 140, (A)+(B)+(C) 120 + 1200 + 140, visual, about 3 weeks after application", "method": "as §1, §2, §4"}, "HORVS [4]": {"test_system": "HORVS", "test": "PE application vs pre-sowing application, crop selectivity, greenhouse (Table 3)", "assay_type": "in vivo, Hordeum vulgare, summer barley", "conditions": "g of AS/ha: (A) 90, (B) 300, (C) 140, (A)+(B)+(C) 90 + 300 + 140", "method": "as §1, §2, §3"}, "MATCH [5]": {"test_system": "MATCH", "test": "PE application with different irrigation, greenhouse (Table 4)", "assay_type": "in vivo, Matricaria chamomilla", "conditions": "g of AS/ha: (A) 90, (B) 300, (C) 140, (A)+(B)+(C) 90 + 300 + 140", "method": "as §1, §2, §3"}, "AVEFA": {"test_system": "AVEFA", "test": "PE application with different irrigation, greenhouse (Table 4)", "assay_type": "in vivo, Avena fatua", "conditions": "g of AS/ha: (A) 90, (B) 300, (C) 140, (A)+(B)+(C) 90 + 300 + 140", "method": "as §1, §2, §3"}, "HORVS [6]": {"test_system": "HORVS", "test": "PE application with different irrigation, crop selectivity, greenhouse (Table 4)", "assay_type": "in vivo, Hordeum vulgare, summer barley", "conditions": "g of AS/ha: (A) 90, (B) 300, (C) 140, (A)+(B)+(C) 90 + 300 + 140", "method": "as §1, §2, §3"}, "STEME [7]": {"test_system": "STEME", "test": "Activity with different soil types, greenhouse (Table 5)", "assay_type": "in vivo, Stellaria media", "conditions": "g of AS/ha: (A) 90, (B) 300, (C) 140, (A)+(B)+(C) 90 + 300 + 140", "method": "as §1, §2, §3"}, "VIOAR": {"test_system": "VIOAR", "test": "Activity with different soil types, greenhouse (Table 5)", "assay_type": "in vivo, Viola arvensis", "conditions": "g of AS/ha: (A) 90, (B) 300, (C) 140, (A)+(B)+(C) 90 + 300 + 140", "method": "as §1, §2, §3"}, "HORVS [8]": {"test_system": "HORVS", "test": "Activity with different soil types, crop selectivity, greenhouse (Table 5)", "assay_type": "in vivo, Hordeum vulgare, summer barley", "conditions": "g of AS/ha: (A) 90, (B) 300, (C) 140, (A)+(B)+(C) 90 + 300 + 140", "method": "as §1, §2, §3"}, "STEME [9]": {"test_system": "STEME", "test": "Resistant biotypes, PE application, greenhouse (Table 6)", "assay_type": "in vivo, Stellaria media", "conditions": "g of AS/ha: (A) 90, (B) 300, (C) 140, (A)+(B)+(C) 120 + 600 + 140, iodosulfuron 10; for activity STEME resistant: resistant biotype; for activity STEME sensitive: sensitive biotype", "method": "as §1, §2, §3"}, "HORVS [10]": {"test_system": "HORVS", "test": "Different sowing depths, PE application, crop selectivity, greenhouse (Table 7)", "assay_type": "in vivo, Hordeum vulgare, summer barley", "conditions": "g of AS/ha: (A) 90, (B) 300, (C) 140, (A)+(B)+(C) 90 + 300 + 140", "method": "as §1, §2, §3"}, "HORVS [11]": {"test_system": "HORVS", "test": "Different soil pH, PE application, crop selectivity, greenhouse (Table 8)", "assay_type": "in vivo, Hordeum vulgare, summer barley", "method": "as §1, §2, §3"}, "TRZAW": {"test_system": "TRZAW", "test": "Different soil pH, PE application, crop selectivity, greenhouse (Table 8)", "assay_type": "in vivo, Triticum aestivum, winter wheat", "method": "as §1, §2, §3"}, "MATCH [12]": {"test_system": "MATCH", "test": "Different soil pH, PE application, greenhouse (Table 8)", "assay_type": "in vivo, Matricaria chamomilla", "method": "as §1, §2, §3"}, "[13]": {"conditions": "IU soil (loamy silt standard field soil)"}, "[14]": {"conditions": "IU/EC73 soil (heavy soil, higher organic substance)"}, "[15]": {"conditions": "soil pH 7.4, g of AS/ha: (A) 90, (B) 300, (C) 140, (A)+(B)+(C) 90 + 300 + 140"}, "[16]": {"conditions": "soil pH 8.4, g of AS/ha: (A) 90, (B) 300, (C) 140, (A)+(B)+(C) 90 + 300 + 140"}}, "data": [{"smiles": "CC(C)N(C(=O)COc1nnc(C(F)(F)F)s1)c1ccc(F)cc1", "note": "[(A) flufenacet, N-(4-fluorophenyl)-N-(1-methylethyl)-2-[[5-(trifluoromethyl)-1,3,4-thiadiazol-2-yl]oxy]acetamide]", "values": [{"measurement": "activity STEME", "setting": "STEME [1]; PE application", "value": 0, "unit": "%"}, {"measurement": "activity STEME", "setting": "STEME [1]; incorporation into the soil", "value": 20, "unit": "%"}, {"measurement": "activity HORVS (crop plant)", "setting": "HORVS [2]; PE application", "value": 20, "unit": "%"}, {"measurement": "activity HORVS (crop plant)", "setting": "HORVS [2]; incorporation into the soil", "value": 60, "unit": "%"}, {"measurement": "activity POAAN", "setting": "POAAN", "value": 60, "unit": "%"}, {"measurement": "activity HORVS (crop plant)", "setting": "HORVS [3]", "value": 40, "unit": "%"}, {"measurement": "activity HORVS (crop plant)", "setting": "HORVS [4]; PE application", "value": 20, "unit": "%"}, {"measurement": "activity HORVS (crop plant)", "setting": "HORVS [4]; application 7 days prior to sowing", "value": 40, "unit": "%"}, {"measurement": "activity MATCH", "setting": "MATCH [5]; irrigation from above", "value": 49, "unit": "%"}, {"measurement": "activity MATCH", "setting": "MATCH [5]; irrigation from below", "value": 15, "unit": "%"}, {"measurement": "activity AVEFA", "setting": "AVEFA; irrigation from above", "value": 92, "unit": "%"}, {"measurement": "activity AVEFA", "setting": "AVEFA; irrigation from below", "value": 63, "unit": "%"}, {"measurement": "activity HORVS (crop plant)", "setting": "HORVS [6]; irrigation from above", "value": 95, "unit": "%"}, {"measurement": "activity HORVS (crop plant)", "setting": "HORVS [6]; irrigation from below", "value": 80, "unit": "%"}, {"measurement": "activity STEME IU soil", "setting": "STEME [7]; [13]", "value": 0, "unit": "%"}, {"measurement": "activity STEME IU/EC73 soil", "setting": "STEME [7]; [14]", "value": 0, "unit": "%"}, {"measurement": "activity VIOAR IU soil", "setting": "VIOAR; [13]", "value": 0, "unit": "%"}, {"measurement": "activity V18 VIOAR IU/EC73 soil", "setting": "VIOAR; [14]", "value": 0, "unit": "%"}, {"measurement": "activity HORVS IU soil (crop plant)", "setting": "HORVS [8]; [13]", "value": 10, "unit": "%"}, {"measurement": "activity HORVS IU/EC73 soil (crop plant)", "setting": "HORVS [8]; [14]", "value": 0, "unit": "%"}, {"measurement": "activity STEME resistant", "setting": "STEME [9]", "value": 0, "unit": "%"}, {"measurement": "activity STEME sensitive", "setting": "STEME [9]", "value": 0, "unit": "%"}, {"measurement": "activity HORVS 5 mm (crop plant)", "setting": "HORVS [10]; sowing depth 5 mm", "value": 30, "unit": "%"}, {"measurement": "activity HORVS 20 mm (crop plant)", "setting": "HORVS [10]; sowing depth 20 mm", "value": 20, "unit": "%"}, {"measurement": "activity HORVS pH 7.4 (crop plant)", "setting": "HORVS [11]; [15]", "value": 10, "unit": "%"}, {"measurement": "activity HORVS pH 8.4 (crop plant)", "setting": "HORVS [11]; [16]", "value": 10, "unit": "%"}, {"measurement": "activity TRZAW pH 7.4 (crop plant)", "setting": "TRZAW; [15]", "value": 0, "unit": "%"}, {"measurement": "activity TRZAW pH 8.4 (crop plant)", "setting": "TRZAW; [16]", "value": 20, "unit": "%"}, {"measurement": "activity MATCH pH 7.4", "setting": "MATCH [12]; [15]", "value": 5, "unit": "%"}, {"measurement": "activity MATCH pH 8.4", "setting": "MATCH [12]; [16]", "value": 0, "unit": "%"}]}, {"smiles": "COc1nc(C)nc(NC(=O)NS(=O)(=O)c2cc(I)ccc2C(=O)O)n1", "note": "[iodosulfuron]", "values": [{"measurement": "activity STEME resistant", "setting": "STEME [9]", "value": 40, "unit": "%"}, {"measurement": "activity STEME sensitive", "setting": "STEME [9]", "value": 90, "unit": "%"}]}]}
